Assay results published in PubChem BioAssay AID1963834 (Molecular Pharmacology Branch, DTP, NCI, 2024).

Tested on: 873145-292-R-J1-PDC complex spheroid viability
Assay: Anticancer human tumor 873145-292-R-J1-PDC patient-derived renal clear cell carcinoma cell line growth inhibition [POLQ]
Conditions: for IC50: curve of first compound; for viability, T/C: stronger effect = lower value
How it was run: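 Three-cell-type spheroids modelling solid tumor plus stroma served as the readout system; POL inhibitors were tested individually and in combination, concentration ranges set by clinical Cmax where known.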

[1] = second compound 0.0316 µM, first compound 0.00316 µM
[2] = second compound 0.0316 µM, first compound 0.01 µM
[3] = second compound 0.0316 µM, first compound 0.0316 µM
[4] = second compound 0.0316 µM, first compound 0.1 µM
[5] = second compound 0.0316 µM, first compound 0.316 µM
[6] = second compound 0.0316 µM, first compound 1 µM
[7] = second compound 0.1 µM, first compound 0.00316 µM
[8] = second compound 0.1 µM, first compound 0.01 µM
[9] = second compound 0.1 µM, first compound 0.0316 µM
[10] = second compound 0.1 µM, first compound 0.1 µM
[11] = second compound 0.1 µM, first compound 0.316 µM
[12] = second compound 0.1 µM, first compound 1 µM
[13] = second compound 0.316 µM, first compound 0.00316 µM
[14] = second compound 0.316 µM, first compound 0.01 µM
[15] = second compound 0.316 µM, first compound 0.0316 µM
[16] = second compound 0.316 µM, first compound 0.1 µM
[17] = second compound 0.316 µM, first compound 0.316 µM
[18] = second compound 0.316 µM, first compound 1 µM
[19] = second compound 1 µM, first compound 0.00316 µM
[20] = second compound 1 µM, first compound 0.01 µM
[21] = second compound 1 µM, first compound 0.0316 µM
[22] = second compound 1 µM, first compound 0.1 µM
[23] = second compound 1 µM, first compound 0.316 µM
[24] = second compound 1 µM, first compound 1 µM
[25] = second compound 3.16 µM, first compound 0.00316 µM
[26] = second compound 3.16 µM, first compound 0.01 µM
[27] = second compound 3.16 µM, first compound 0.0316 µM
[28] = second compound 3.16 µM, first compound 0.1 µM
[29] = second compound 3.16 µM, first compound 0.316 µM
[30] = second compound 3.16 µM, first compound 1 µM
[31] = second compound 10 µM, first compound 0.00316 µM
[32] = second compound 10 µM, first compound 0.01 µM
[33] = second compound 10 µM, first compound 0.0316 µM
[34] = second compound 10 µM, first compound 0.1 µM
[35] = second compound 10 µM, first compound 0.316 µM
[36] = second compound 10 µM, first compound 1 µM
[37] = second compound 0.0316 µM, first compound 3.16 µM
[38] = second compound 0.0316 µM, first compound 10 µM
[39] = second compound 0.1 µM, first compound 3.16 µM
[40] = second compound 0.1 µM, first compound 10 µM
[41] = second compound 0.316 µM, first compound 3.16 µM
[42] = second compound 0.316 µM, first compound 10 µM
[43] = second compound 1 µM, first compound 3.16 µM
[44] = second compound 1 µM, first compound 10 µM
[45] = second compound 3.16 µM, first compound 3.16 µM
[46] = second compound 3.16 µM, first compound 10 µM
[47] = second compound 10 µM, first compound 3.16 µM
[48] = second compound 10 µM, first compound 10 µM
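Also: spheroids exposed to compounds for 7 days before viability readout.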
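For viability, T/C in this document: luminescence signal used as surrogate for viable cell content; 100% = DMSO vehicle control viability.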

## C=CCn1c(=O)c2cnc(Nc3ccc(N4CCN(C)CC4)cc3)nc2n1-c1cccc(C(C)(C)O)n1 + COC1C(OC(N)=O)C(O)C(Oc2ccc3c(O)c(NC(=O)c4ccc(O)c(CC=C(C)C)c4)c(=O)oc3c2C)OC1(C)C
Second compound 0.0316 µM
  IC50: > 1 µM
Second compound 0.1 µM
  IC50: > 1 µM
Second compound 0.316 µM
  IC50: > 1 µM
Second compound 1 µM
  IC50: > 1 µM
Second compound 3.16 µM
  IC50: > 1 µM
Second compound 10 µM
  IC50: > 1 µM
[1]
  viability, T/C: 98.9%
[2]
  viability, T/C: 109%
[3]
  viability, T/C: 89.8%
[4]
  viability, T/C: 85.5%
[5]
  viability, T/C: 90.7%
[6]
  viability, T/C: 70.1%
[7]
  viability, T/C: 102%
[8]
  viability, T/C: 97.6%
[9]
  viability, T/C: 100%
[10]
  viability, T/C: 95.5%
[11]
  viability, T/C: 84.9%
[12]
  viability, T/C: 69.9%
[13]
  viability, T/C: 100%
[14]
  viability, T/C: 109%
[15]
  viability, T/C: 96%
[16]
  viability, T/C: 97.7%
[17]
  viability, T/C: 83.5%
[18]
  viability, T/C: 74.5%
[19]
  viability, T/C: 98.8%
[20]
  viability, T/C: 96%
[21]
  viability, T/C: 99.6%
[22]
  viability, T/C: 83.2%
[23]
  viability, T/C: 94.6%
[24]
  viability, T/C: 63.1%
[25]
  viability, T/C: 100%
[26]
  viability, T/C: 98.8%
[27]
  viability, T/C: 89.5%
[28]
  viability, T/C: 89.5%
[29]
  viability, T/C: 88.3%
[30]
  viability, T/C: 75.7%
[31]
  viability, T/C: 100%
[32]
  viability, T/C: 92.1%
[33]
  viability, T/C: 101%
[34]
  viability, T/C: 96.8%
[35]
  viability, T/C: 76.5%
[36]
  viability, T/C: 72%

## CCCS(=O)(=O)Nc1ccc(F)c(C(=O)c2c[nH]c3ncc(-c4ccc(Cl)cc4)cc23)c1F + COC1C(OC(N)=O)C(O)C(Oc2ccc3c(O)c(NC(=O)c4ccc(O)c(CC=C(C)C)c4)c(=O)oc3c2C)OC1(C)C
Second compound 0.0316 µM
  IC50: > 10 µM
Second compound 0.1 µM
  IC50: > 10 µM
Second compound 0.316 µM
  IC50: > 10 µM
Second compound 1 µM
  IC50: > 10 µM
Second compound 3.16 µM
  IC50: > 10 µM
Second compound 10 µM
  IC50: > 10 µM
[3]
  viability, T/C: 118%
[4]
  viability, T/C: 98.8%
[5]
  viability, T/C: 99.4%
[6]
  viability, T/C: 107%
[37]
  viability, T/C: 90.7%
[38]
  viability, T/C: 62.5%
[9]
  viability, T/C: 113%
[10]
  viability, T/C: 108%
[11]
  viability, T/C: 108%
[12]
  viability, T/C: 112%
[39]
  viability, T/C: 89.8%
[40]
  viability, T/C: 57.7%
[15]
  viability, T/C: 104%
[16]
  viability, T/C: 92.5%
[17]
  viability, T/C: 98.9%
[18]
  viability, T/C: 99.8%
[41]
  viability, T/C: 94.9%
[42]
  viability, T/C: 57.3%
[21]
  viability, T/C: 96.9%
[22]
  viability, T/C: 111%
[23]
  viability, T/C: 102%
[24]
  viability, T/C: 107%
[43]
  viability, T/C: 94.2%
[44]
  viability, T/C: 60.9%
[27]
  viability, T/C: 102%
[28]
  viability, T/C: 103%
[29]
  viability, T/C: 105%
[30]
  viability, T/C: 91.2%
[45]
  viability, T/C: 89.5%
[46]
  viability, T/C: 53.2%
[33]
  viability, T/C: 89.3%
[34]
  viability, T/C: 93.3%
[35]
  viability, T/C: 98.8%
[36]
  viability, T/C: 106%
[47]
  viability, T/C: 93.2%
[48]
  viability, T/C: 64.7%

## CNCc1ccc(-c2[nH]c3cc(F)cc4c3c2CCNC4=O)cc1 + COC1C(OC(N)=O)C(O)C(Oc2ccc3c(O)c(NC(=O)c4ccc(O)c(CC=C(C)C)c4)c(=O)oc3c2C)OC1(C)C
Second compound 0.0316 µM
  IC50: > 10 µM
Second compound 0.1 µM
  IC50: > 10 µM
Second compound 0.316 µM
  IC50: > 10 µM
Second compound 1 µM
  IC50: > 10 µM
Second compound 3.16 µM
  IC50: > 10 µM
Second compound 10 µM
  IC50: > 10 µM
[3]
  viability, T/C: 106%
[4]
  viability, T/C: 96.8%
[5]
  viability, T/C: 102%
[6]
  viability, T/C: 96.7%
[37]
  viability, T/C: 90.7%
[38]
  viability, T/C: 91.6%
[9]
  viability, T/C: 97%
[10]
  viability, T/C: 97.8%
[11]
  viability, T/C: 88%
[12]
  viability, T/C: 95.6%
[39]
  viability, T/C: 88%
[40]
  viability, T/C: 98.3%
[15]
  viability, T/C: 94.9%
[16]
  viability, T/C: 89.4%
[17]
  viability, T/C: 95.8%
[18]
  viability, T/C: 89.2%
[41]
  viability, T/C: 96.1%
[42]
  viability, T/C: 104%
[21]
  viability, T/C: 90.4%
[22]
  viability, T/C: 98.5%
[23]
  viability, T/C: 118%
[24]
  viability, T/C: 86.7%
[43]
  viability, T/C: 95.7%
[44]
  viability, T/C: 102%
[27]
  viability, T/C: 99.5%
[28]
  viability, T/C: 95.8%
[29]
  viability, T/C: 98.4%
[30]
  viability, T/C: 92.2%
[45]
  viability, T/C: 98.1%
[46]
  viability, T/C: 96.1%
[33]
  viability, T/C: 98.5%
[34]
  viability, T/C: 101%
[35]
  viability, T/C: 92.4%
[36]
  viability, T/C: 94.7%
[47]
  viability, T/C: 98.5%
[48]
  viability, T/C: 102%

## COc1cccc(OCCCN)c1-c1cc(Nc2cnc(C#N)cn2)n[nH]1 + COC1C(OC(N)=O)C(O)C(Oc2ccc3c(O)c(NC(=O)c4ccc(O)c(CC=C(C)C)c4)c(=O)oc3c2C)OC1(C)C
Second compound 0.0316 µM
  IC50: > 1 µM
Second compound 0.1 µM
  IC50: > 1 µM
Second compound 0.316 µM
  IC50: > 1 µM
Second compound 1 µM
  IC50: > 1 µM
Second compound 3.16 µM
  IC50: > 1 µM
Second compound 10 µM
  IC50: > 1 µM
[1]
  viability, T/C: 102%
[2]
  viability, T/C: 82.4%
[3]
  viability, T/C: 62.8%
[4]
  viability, T/C: 61.3%
[5]
  viability, T/C: 61%
[6]
  viability, T/C: 68.7%
[7]
  viability, T/C: 106%
[8]
  viability, T/C: 93.8%
[9]
  viability, T/C: 71.1%
[10]
  viability, T/C: 71.5%
[11]
  viability, T/C: 62.1%
[12]
  viability, T/C: 72.3%
[13]
  viability, T/C: 104%
[14]
  viability, T/C: 84.8%
[15]
  viability, T/C: 64.7%
[16]
  viability, T/C: 57.8%
[17]
  viability, T/C: 71.1%
[18]
  viability, T/C: 62.1%
[19]
  viability, T/C: 97.9%
[20]
  viability, T/C: 76.3%
[21]
  viability, T/C: 62.5%
[22]
  viability, T/C: 62.4%
[23]
  viability, T/C: 58.7%
[24]
  viability, T/C: 72.9%
[25]
  viability, T/C: 108%
[26]
  viability, T/C: 72%
[27]
  viability, T/C: 71.9%
[28]
  viability, T/C: 63.8%
[29]
  viability, T/C: 68.4%
[30]
  viability, T/C: 68.7%
[31]
  viability, T/C: 90.8%
[32]
  viability, T/C: 80%
[33]
  viability, T/C: 73.1%
[34]
  viability, T/C: 62.6%
[35]
  viability, T/C: 66.1%
[36]
  viability, T/C: 78.3%
